The record followed here is patent publication US6180651A, “Diarylmethylidenefuran derivatives, processes for their preparation and their uses in therapeutics” (Bristol-Myers Squibb, priority 1996, dated 2001).

In data set [1] the test system is carrageenin oedema. Nature of the data set: anti-inflammatory activity, carrageenin oedema test. The data set is classed as in vivo. Particulars: rat, oral; dose which induces 50% decrease in the volume of the oedema; read-out: Anti-inflammatory activity ID50. The procedure: (§1) The anti-inflarnmatory activity of the compounds of the Examples was evaluated by the carrageenin oedema method and the analgesic activity was evaluated by the kaolin arthritis method.
Anti-inflammatory Activity:
The anti-inflammatory activity is evaluated in the rat by the carrageenin oedema test. The product is administered orally at a rate of 2.5 ml/100 g (n=6 animals per dose) 2 h 30 min after oral hyperhydration (2.5 m/100 g); one hour after administration of the product, the oedema is induced by the plantar subcutaneous injection of 2% aqueous carrageenin solution. The results are expressed as the ID50, the dose in mg/kg which induces 50% decrease in the volume of the oedema, calculated by linear regression using the maximum oedema volume obtained for each product tested.

Data set [2] addresses T1, COX-1 (Ovis aries, UniProt P05979).
T1 construct: purified enzyme from ram seminal vesicles; from tissue; host or cells: ram seminal vesicles (purified enzyme)
T1 sequence (P05979 25-600): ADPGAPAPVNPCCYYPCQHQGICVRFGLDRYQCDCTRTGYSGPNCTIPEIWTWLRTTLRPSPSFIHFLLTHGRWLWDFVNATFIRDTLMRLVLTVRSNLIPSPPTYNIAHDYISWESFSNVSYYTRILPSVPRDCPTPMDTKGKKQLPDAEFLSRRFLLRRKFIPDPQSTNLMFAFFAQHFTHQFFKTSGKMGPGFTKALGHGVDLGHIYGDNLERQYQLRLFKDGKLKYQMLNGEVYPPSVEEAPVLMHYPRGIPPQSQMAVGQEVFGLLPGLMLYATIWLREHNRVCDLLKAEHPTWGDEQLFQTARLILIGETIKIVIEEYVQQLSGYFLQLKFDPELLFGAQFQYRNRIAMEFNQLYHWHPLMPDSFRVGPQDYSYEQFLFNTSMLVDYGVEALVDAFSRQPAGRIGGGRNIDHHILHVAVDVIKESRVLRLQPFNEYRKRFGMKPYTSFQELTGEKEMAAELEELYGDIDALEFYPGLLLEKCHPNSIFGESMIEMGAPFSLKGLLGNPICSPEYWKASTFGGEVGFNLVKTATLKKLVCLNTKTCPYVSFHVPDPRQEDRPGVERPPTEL
Nature of the data set: inhibition of COX-1 enzymatic activity (PGE2 by EIA). The data set is classed as biochemical. Particulars: purified enzyme from ram seminal vesicles; arachidonic acid 6 μM; n=1 to 4 determinations. The protocol: (§2) Inhibition of the COX-1 and COX-2 Enzymatic Activities The test molecule is preincubated for 10 minutes at 25° C. with 2 U of COX-1 (purified enzyme from ram seminal vesicles) or 1 U of COX-2 (purified enzyme from ewe placenta). Arachidonic acid (6 μM for COX-1, 4 μM for COX-2) is added to the reaction medium and incubation is carried out for 5 minutes at 25° C. When incubation has ended, the enzymatic reaction is stopped by the addition of 1 N HCl and the PGE2 produced is determined by EIA. The results are expressed as IC50, the concentration in nM which corresponds to 50% inhibition of the maximal enzymatic activity on the COX-1 and COX-2 (n=1 to 4 determinations).

For data set [3], the target named is T2, COX-2 (Ovis aries, UniProt P79208).
T2 construct: purified enzyme from ewe placenta; from tissue; host or cells: ewe placenta (purified enzyme)
T2 sequence (P79208 17-603): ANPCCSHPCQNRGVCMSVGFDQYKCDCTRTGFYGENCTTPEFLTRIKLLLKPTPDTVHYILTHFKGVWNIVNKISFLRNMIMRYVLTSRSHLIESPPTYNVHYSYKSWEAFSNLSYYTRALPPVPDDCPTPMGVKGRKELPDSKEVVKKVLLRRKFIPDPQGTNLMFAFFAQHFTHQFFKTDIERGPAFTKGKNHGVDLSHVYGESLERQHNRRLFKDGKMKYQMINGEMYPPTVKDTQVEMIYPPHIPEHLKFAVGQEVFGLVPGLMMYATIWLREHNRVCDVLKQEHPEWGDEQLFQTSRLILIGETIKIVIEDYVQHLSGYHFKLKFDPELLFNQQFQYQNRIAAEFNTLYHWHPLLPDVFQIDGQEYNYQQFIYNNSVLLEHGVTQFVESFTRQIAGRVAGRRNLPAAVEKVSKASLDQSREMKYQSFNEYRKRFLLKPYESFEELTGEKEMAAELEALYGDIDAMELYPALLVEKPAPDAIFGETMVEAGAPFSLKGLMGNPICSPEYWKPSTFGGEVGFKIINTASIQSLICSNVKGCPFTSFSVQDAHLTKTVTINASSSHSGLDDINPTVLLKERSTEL
The data set can be described thus: inhibition of COX-2 enzymatic activity (PGE2 by EIA). The data set is classed as biochemical, ewe. The note with it: for IC50: purified enzyme from ewe placenta, arachidonic acid 4 μM, n=1 to 4 determinations; for Selectivity COX-1/COX-2 ratio: ratio of IC50 COX-1 / IC50 COX-2. The protocol:
as §2

Data set [4] relates to kaolin arthritis. Nature of the data set: analgesic activity, kaolin arthritis test. The note with it: rat, oral; dose which induces 50% decrease of the maximum quotation in the control batch; read-out: Analgesic activity DE50. The data set is classed as in vivo. The procedure: as §1
The analgesic activity is evaluated in the rat by the kaolin arthritis test. Thirty minutes after the intra-articular administration of 10% aqueous kaolin suspension, the product is administered orally at a rate of 1 ml/100 g (n=10 animals per dose). The results are expressed as DE50, the dose in mg/kg which induces 50% decrease of the maximum quotation in the control batch, calculated by linear regression.

Data set [5] in a line: gastric tolerance, ulceration index. Further details: species or system Charles River rats of the CD strain. Particulars: rat, in vivo, po. The protocol: The gastric tolerance is studied on Charles River rats of the CD strain weighing between 110 and 150 g. The animals are placed on a water diet 24 h prior to oral administration of the product or the vehicle only at a rate of 1 ml/100 g (n=6 animals per dose). Six hours after administration,the animals are sacrificed and the stomachs are removed and opened along the large curvature. The number of haemorrhagic puncta and sulci per stomach, identified macroscopically, makes it possible to establish an ulceration index (0: no lesion, 1: 1 to 2 lesions, 2: 3 to 4 lesions, 3: 5 to 8 lesions, 4: 9 to 16 lesions, 5: more than 17 lesions) and to estimate the 50% ulcerigenic dose (UD50 =dose inducing 4 to 5 lesions, expressed in mg/kg).

For data set [6], the system named is apc/min mice. Nature of the data set: chemoprevention assay in apc/min mice (model of human familial adenomatous polyposis). The data set is classed as in vivo. Particulars: 1.8 mg/kg/day in the feed. The protocol: Chemoprevention Assays in Mice:
The test molecule is given in the feed to apc/min mice, a mouse model of human familial adenomatous polyposis, at 1.8 mg/kg/day for 240 days. The viability and the average tumor burden in animals receiving the test compound is compared to that in control animals.

By IC50 is commonly meant the concentration that gives 50% inhibition.

With `CS(=O)(=O)c1ccc(/C(=C2\CCOC2=O)c2ccc(F)cc2)cc1` [4 (E isomer), (E)-3-[1-(4-fluorophenyl)-1-(4-methanesulphonylphenyl)methylidene]dihydrofuran-2-one], the ED50 in data set [1] is 1.8 mg/kg; in data set [4], 7.6 mg/kg. The values for the IC50 in data set [2] and in data set [3] were greater than 300000 nM and 674 ± 46 nM, respectively. For the same compound, in data set [3], the “Selectivity COX-1/COX-2 ratio” value is reported as greater than 445. Besides, in data set [5], the TD50 at 6 h was greater than 1000 mg/kg.

For `CS(=O)(=O)c1ccc(/C(=C2\CCOC2=O)c2ccc(Cl)cc2)cc1` [8 (Z isomer), (Z)-3-[1-(4-chlorophenyl)-1-(4-methanesulphonylphenyl)methylidene]dihydrofuran-2-one], the results for the ED50 in data set [1] and in data set [4] were 3.7 mg/kg and 2.1 mg/kg, respectively. Besides, the IC50 was determined as 172000 ± 22200 nM in data set [2] and 182 ± 25 nM in data set [3]. For the same compound, in data set [3], the “Selectivity COX-1/COX-2 ratio” value was 944. The mice still alive in data set [6] (240 days, control 8/29) is reported as 17/29. For the same compound, the average tumor burden in data set [6] (240 days, control 16.3 tumors) came to 11.9 tumors per mouse. Besides, the “viability compared to control” value in data set [6] (after 240 days) is listed as “outliving their control counterparts”. In addition, in data set [5], the TD50 at 6 h was greater than 1000 mg/kg.

For `CS(=O)(=O)c1ccc(/C(=C2\CCOC2=O)c2ccc(F)c(Cl)c2)cc1` [95 (Z isomer), (Z)-3-[1-(3-chloro-4-fluorophenyl)-1-(4-methanesulphonylphenyl)methylidene]-dihydrofuran-2-one], the results for the ED50 in data set [1] and in data set [4] were 1.6 mg/kg and 5.8 mg/kg, respectively. The IC50 in data set [2] is 309000 ± 27500 nM; in data set [3], 205 ± 35 nM. In data set [3], the “Selectivity COX-1/COX-2 ratio” value was determined as 1510.

In the case of `NS(=O)(=O)c1ccc(/C(=C2\CCOC2=O)c2ccc(Cl)cc2)cc1` [125 (Z isomer), (Z)-4-[(4-chlorophenyl)-(2-oxo-dihydro-furan-3-ylidene)-methyl]benzenesulphonamide], the ED50 turned out to be 1.8 mg/kg in data set [1] and 8.5 mg/kg in data set [4]. The IC50 came out at 2520 ± 1310 nM in data set [2] and 60 nM in data set [3]. Besides, the “Selectivity COX-1/COX-2 ratio” value in data set [3] is 42. Besides, in data set [5], the TD50 at 6 h was greater than 1000 mg/kg.

In the case of `Cc1ccc(/C(=C2/CCOC2=O)c2ccc(S(N)(=O)=O)cc2)cc1F` [130 (Z isomer), (Z)-4-[(3-fluoro-4-methylphenyl)-(2-oxo-dihydrofuran-3-ylidene)methyl]benzenesulphonamide], the ED50 in data set [1] stood at 2 mg/kg; in data set [4], 2.4 mg/kg. Further, the IC50 in data set [2] is 45700 nM; in data set [3] it was 131 ± 19 nM. Also, the “Selectivity COX-1/COX-2 ratio” value in data set [3] was determined as 349.

In the case of `Cc1cc(/C(=C2/CCOC2=O)c2ccc(S(N)(=O)=O)cc2)ccc1F` [135 (Z isomer), (Z)-4-[(4-fluoro-3-methylphenyl)-(2-oxo-dihydrofuran-3-ylidene)methyl]benzenesulphonamide], the ED50 in data set [1] was found to be 3.3 mg/kg; in data set [4], 6.1 mg/kg. In addition, the IC50 in data set [2] came to 19700 nM; in data set [3] it was 245 ± 76 nM. Further, the “Selectivity COX-1/COX-2 ratio” value in data set [3] is on record as 80.

With `NS(=O)(=O)c1ccc(/C(=C2\CCOC2=O)c2ccc(F)c(Cl)c2)cc1` [143 (Z isomer), (Z)-4-[(3-chloro-4-fluorophenyl)-(2-oxo-dihydro-furan-3-ylidene)methyl]benzenesulphonamide], the ED50 in data set [1] came to 0.7 mg/kg; in data set [4] it was 6.4 mg/kg. Moreover, the figures for the half-inhibitory concentration (IC50) in data set [2] and in data set [3] were 12700 nM and 73 nM, respectively. For the same compound, the “Selectivity COX-1/COX-2 ratio” value in data set [3] stood at 174.
